Laboratory results taken from patent publication US8889354B2, “Methods for the identification, assessment, and treatment of patients with cancer therapy” (Millennium Pharmaceuticals, Inc., priority 2005, dated 2014).
Where two headings read alike, the source gives them in different places.

Assays:
[1] = tested on: relapsed multiple myeloma; details: cited from earlier work
multiple myeloma [2] = details: bortezomib alone, cited from earlier work
multiple myeloma [3] = assay: Response of the pharmacogenomic patient subset (studies 024, 025, 039, 040), EBMT criteria; format: in vivo, human; details: for NP, number of patients classified as progression / NR, number of patients classified as responder / NS, number of patients classified as stable disease: best response, discovery samples
Experimental: Patients assigned to the high-dose dexamethasone group received treatment for a maximum of 280 days. Patients in this treatment group received up to four 5-week treatment cycles, followed by up to five 4-week treatment cycles. Within each 5-week treatment cycle, the patient received dexamethasone 40 mg/day PO, once daily on Days 1 to 4, 9 to 12, and 17 to 20 of a 35-day cycle. Within each 4-week treatment cycle, the patient received dexamethasone 40 mg/day PO once daily on Days 1 to 4 of a 28 day cycle.
Pharmacogenomic tumor samples (bone marrow aspirate) were collected from patients for evaluation of the expression of global mRNA levels.
For those patients who participated in the pharmacogenomic portion of the study, correlation between RNA expression levels and response to therapy were evaluated descriptively. In addition, duration of response, time to disease progression, quality of life, and overall patient survival may be analyzed using RNA expression as a factor.
A total of 224 patient samples were assessed for pharmacogenomic analyses. […] All pharmacogenomic analyses relied on the European Group for Blood and Marrow Transplant (EBMT) criteria of response category.
The data set consisted of discovery samples matched with the patient's outcome as measured by best response and time to disease progression. For best response, each patient was classified as responder (NR), stable disease (NS), or progression (NP). For marker identification, the three response classes were further grouped into responders vs. non-responders (stable and progression) (NP+S), responders vs. progression, or progression vs. others (stable and responders) (NR+S). The analyses further separated the patients based on the treatment they received. […] Thus, the responder vs. non-responder analysis utilizes 79 vs. 84 samples. The responder vs. progression analysis utilizes 79 vs. 41 and the progression vs. other analysis utilizes 41 vs. 122 samples. For the dexamethasone analysis NR=25, NS=16, and NP=21. Accordingly, the responder vs. non-responder analysis utilizes 25 vs. 37 samples. The responder vs. progression analysis utilizes 25 vs. 21 and the progression vs. other analysis utilizes 21 vs. 41 samples.

SMILES: CC(C)C[C@H](NC(=O)[C@H](Cc1ccccc1)NC(=O)c1cnccn1)B(O)O [bortezomib, N-pyrazinecarbonyl-L-phenylalanine-L-leucineboronic acid]
- CR+PR rate ([1]; bortezomib 1.0 mg/m^2): 30%
- CR+PR rate ([1]; bortezomib 1.3 mg/m^2): 38%
- CR+PR rate (multiple myeloma [2]; 53 of 193 patients): 27%
- overall response rate (CR+PR+MR) (multiple myeloma [2]; 67 of 193 patients): 35%
- CR, number of patients (multiple myeloma [3]; Study 024): 1
- IE, number of patients (multiple myeloma [3]; Study 024): 0
- MR, number of patients (multiple myeloma [3]; Study 024): 0
- NC, number of patients (multiple myeloma [3]; Study 024): 1
- PD, number of patients (multiple myeloma [3]; Study 024): 4
- PR, number of patients (multiple myeloma [3]; Study 024): 1
- CR, number of patients (multiple myeloma [3]; Study 025): 2
- IE, number of patients (multiple myeloma [3]; Study 025): 5
- MR, number of patients (multiple myeloma [3]; Study 025): 3
- NC, number of patients (multiple myeloma [3]; Study 025): 10
- PD, number of patients (multiple myeloma [3]; Study 025): 14
- PR, number of patients (multiple myeloma [3]; Study 025): 10
- CR, number of patients (multiple myeloma [3]; Study 040): 1
- IE, number of patients (multiple myeloma [3]; Study 040): 2
- MR, number of patients (multiple myeloma [3]; Study 040): 6
- NC, number of patients (multiple myeloma [3]; Study 040): 13
- PD, number of patients (multiple myeloma [3]; Study 040): 8
- PR, number of patients (multiple myeloma [3]; Study 040): 20
- NP, number of patients classified as progression (multiple myeloma [3]): 41
- NR, number of patients classified as responder (multiple myeloma [3]): 79
- NS, number of patients classified as stable disease (multiple myeloma [3]): 43
- CR+PR rate (multiple myeloma [3]; pharmacogenomic patient set): 35%
- overall response rate (multiple myeloma [3]; pharmacogenomic patient set): 46.4%

SMILES: C[C@@H]1C[C@H]2[C@@H]3CCC4=CC(=O)C=C[C@]4(C)[C@@]3(F)[C@@H](O)C[C@]2(C)[C@@]1(O)C(=O)CO [dexamethasone]
- NP, number of patients classified as progression (multiple myeloma [3]): 21
- NR, number of patients classified as responder (multiple myeloma [3]): 25
- NS, number of patients classified as stable disease (multiple myeloma [3]): 16
